{
  "source": "patent US4536398A",
  "about": "“Antiviral agents” (Meiji Seika Kaisha Ltd., priority 1982, dated 1985)",
  "key": {"[1]": {"tested_on": "Staphylococcus aureus 209P", "assay": "Agar dilution antibacterial MIC", "type": "cell-based", "conditions": "agar dilution method, read-out: Minimum Inhibitory Concentration"}, "[2]": {"tested_on": "Staphylococcus aureus Smith", "assay": "Agar dilution antibacterial MIC", "type": "cell-based", "conditions": "agar dilution method, read-out: Minimum Inhibitory Concentration"}, "[3]": {"tested_on": "Streptococcus faecalis ATCC 8043", "assay": "Agar dilution antibacterial MIC", "type": "cell-based", "conditions": "Enterococcus faecalis, ATCC8043; agar dilution method; read-out: Minimum Inhibitory Concentration"}, "[4]": {"tested_on": "Baciullus anthrasis No. 119", "assay": "Agar dilution antibacterial MIC", "type": "cell-based", "conditions": "read-out: Minimum Inhibitory Concentration"}, "[5]": {"tested_on": "Escherichia coli No. 29", "assay": "Agar dilution antibacterial MIC", "type": "cell-based", "conditions": "agar dilution method, read-out: Minimum Inhibitory Concentration"}, "[6]": {"tested_on": "Escherichia coli W3630 RGN 823", "assay": "Agar dilution antibacterial MIC", "type": "cell-based", "conditions": "W3630RGN823, read-out: Minimum Inhibitory Concentration"}, "[7]": {"tested_on": "Citrobacter freundii GN 346", "assay": "Agar dilution antibacterial MIC", "type": "cell-based", "conditions": "GN346, read-out: Minimum Inhibitory Concentration"}, "[8]": {"tested_on": "Salmonella typhi 0-901-W", "assay": "Agar dilution antibacterial MIC", "type": "cell-based", "conditions": "Salmonella enterica, read-out: Minimum Inhibitory Concentration"}, "[9]": {"tested_on": "Salmonella enteritidis No. 11", "assay": "Agar dilution antibacterial MIC", "type": "cell-based", "conditions": "Salmonella enterica, agar dilution method, read-out: Minimum Inhibitory Concentration"}, "[10]": {"tested_on": "Sarcina lutea", "assay": "Agar dilution antibacterial MIC", "type": "cell-based", "conditions": "Micrococcus luteus; agar dilution method; read-out: Minimum Inhibitory Concentration"}, "[11]": {"tested_on": "Shigella sonnei EW33 type I", "assay": "Agar dilution antibacterial MIC", "type": "cell-based", "conditions": "EW33TYPEI, agar dilution method, read-out: Minimum Inhibitory Concentration"}, "[12]": {"tested_on": "Klebsiella pneumoniae PCI 602", "assay": "Agar dilution antibacterial MIC", "type": "cell-based", "conditions": "PCI602, agar dilution method, read-out: Minimum Inhibitory Concentration"}, "[13]": {"tested_on": "Proteus vulgaris OX-19", "assay": "Agar dilution antibacterial MIC", "type": "cell-based", "conditions": "OX19, agar dilution method, read-out: Minimum Inhibitory Concentration"}, "[14]": {"tested_on": "Proteus morganii Kono", "assay": "Agar dilution antibacterial MIC", "type": "cell-based", "conditions": "Morganella morganii; agar dilution method; read-out: Minimum Inhibitory Concentration"}, "[15]": {"tested_on": "Pseudomonas aeruginosa MB 3829", "assay": "Agar dilution antibacterial MIC", "type": "cell-based", "conditions": "MB3829, agar dilution method, read-out: Minimum Inhibitory Concentration"}, "[16]": {"tested_on": "Pseudomonas cepacia M-0527", "assay": "Agar dilution antibacterial MIC", "type": "cell-based", "conditions": "Burkholderia cepacia, M0527; agar dilution method; read-out: Minimum Inhibitory Concentration"}, "[17]": {"tested_on": "Vibrio percolance", "assay": "Paper disc plate bioassay, inhibition zone", "type": "cell-based", "conditions": "paper disc plate method, read-out: diameter of inhibition zone", "source_text": "For assay of the substance SF-2140, bioassay agar is used as a medium for assay and Vibrio percolance is as a test microbe."}, "[18]": {"tested_on": "Influenza virus A1 /FM-1", "assay": "microbe, parasite or virus in culture", "type": "cell-based"}, "[19]": {"tested_on": "Influenza virus A2 /Adachi", "assay": "microbe, parasite or virus in culture", "type": "cell-based"}, "[20]": {"tested_on": "Influenza virus B/Lee", "assay": "microbe, parasite or virus in culture", "type": "cell-based", "conditions": "unidentified influenza virus, 48 h, read-out: 50% Virus proliferation inhibiting conc."}, "[21]": {"tested_on": "Influenza virus Horse/Miami", "assay": "microbe, parasite or virus in culture", "type": "cell-based"}, "[22]": {"tested_on": "Influenza virus A1 /FM-1", "assay": "microbe, parasite or virus in culture", "type": "cell-based", "remark": "listed apart in the source"}, "[23]": {"tested_on": "Influenza virus A2 /Adachi", "assay": "microbe, parasite or virus in culture", "type": "cell-based", "remark": "listed apart in the source"}, "[24]": {"tested_on": "Influenza virus B/Lee", "assay": "microbe, parasite or virus in culture", "type": "cell-based"}, "[25]": {"tested_on": "Influenza virus Horse/Miami", "assay": "microbe, parasite or virus in culture", "type": "cell-based", "remark": "listed apart in the source"}, "[26]": {"assay": "Serum level after intraperitoneal administration", "type": "in vivo", "conditions": "200 mg/kg intraperitoneal (1% CMC), biological assay, mice n=5", "experimental": "| Dose: 200 mg/kg (1% CMC)"}, "[27]": {"assay": "Serum level after oral administration", "type": "in vivo", "conditions": "125 mg/kg oral (5% arabin gum), HPLC, mice n=3", "experimental": "| Dose: 125 mg/kg (5% arabin gum)"}, "[28]": {"assay": "Acute toxicity (LD50)", "conditions": "mouse, in vivo, ip; mice, intraperitoneal", "experimental": "Acute toxicity (LD50 value) of the substance SF-2140, the active ingredient in the present antiviral agent, was not less than 500 mg/kg in mice via intraperitoneal administration."}, "[29]": {"assay": "Solubility", "type": "physicochemical"}, "[30]": {"assay": "Stability", "type": "physicochemical", "source_text": "(13) Stability: Stable under acidic to neutral condition, instable under alkaline condition."}, "[31]": {"assay": "in vitro", "conditions": "chicken, chorioallantoic membrane"}, "[32]": {"conditions": "unidentified influenza virus, 48 h, read-out: 50% Virus proliferation inhibiting conc."}, "[33]": {"conditions": "unidentified influenza virus, 2 h, read-out: 50% Virucidal conc."}},
  "note": "Where two headings read alike, the source gives them in different places.",
  "data": [
    {"compound": "COC(=O)C1CC(O)C(O)C(n2cc(CC#N)c3c(OC)cccc32)O1", "note": "(stereo not shown) [SF-2140]", "values": [
      {"measurement": "MIC", "setting": "[1]", "value": 25, "unit": "µg/mL"},
      {"measurement": "MIC", "setting": "[2]", "value": 100, "unit": "µg/mL"},
      {"measurement": "MIC", "setting": "[3]", "value": 12.5, "unit": "µg/mL"},
      {"measurement": "MIC", "setting": "[4]", "value": 6.25, "unit": "µg/mL"},
      {"measurement": "MIC", "setting": "[5]", "value": "> 100", "unit": "µg/mL"},
      {"measurement": "MIC", "setting": "[6]", "value": 50, "unit": "µg/mL"},
      {"measurement": "MIC", "setting": "[7]", "value": "> 100", "unit": "µg/mL"},
      {"measurement": "MIC", "setting": "[8]", "value": 100, "unit": "µg/mL"},
      {"measurement": "MIC", "setting": "[9]", "value": 12.5, "unit": "µg/mL"},
      {"measurement": "MIC", "setting": "[10]", "value": 50, "unit": "µg/mL"},
      {"measurement": "MIC", "setting": "[11]", "value": "> 100", "unit": "µg/mL"},
      {"measurement": "MIC", "setting": "[12]", "value": "> 100", "unit": "µg/mL"},
      {"measurement": "MIC", "setting": "[13]", "value": 25, "unit": "µg/mL"},
      {"measurement": "MIC", "setting": "[14]", "value": "> 100", "unit": "µg/mL"},
      {"measurement": "MIC", "setting": "[15]", "value": "> 100", "unit": "µg/mL"},
      {"measurement": "MIC", "setting": "[16]", "value": 100, "unit": "µg/mL"},
      {"measurement": "zone of inhibition at 125 µg/mL", "setting": "[17]; 125 mcg/ml", "value": 14.6, "unit": "mm"},
      {"measurement": "zone of inhibition at 1000 µg/mL", "setting": "[17]; 1000 mcg/ml", "value": 22, "unit": "mm"},
      {"measurement": "proliferation inhibiting activity (in words)", "setting": "[18]", "value": "showed a proliferation inhibiting activity"},
      {"measurement": "virus proliferation inhibition index", "setting": "[18]; A1 /FM-1, 50% toxicity conc. / 50% proliferation inhibiting conc., 2880 min", "value": "> 20.0"},
      {"measurement": "IC50", "setting": "[18]; [32]", "value": 50.5, "unit": "µg/mL"},
      {"measurement": "proliferation inhibiting activity (in words)", "setting": "[19]", "value": "showed a proliferation inhibiting activity"},
      {"measurement": "virus proliferation inhibition index", "setting": "[19]; A2 /Adachi, 50% toxicity conc. / 50% proliferation inhibiting conc., 2880 min", "value": "> 10.0"},
      {"measurement": "IC50", "setting": "[19]; [32]", "value": 100, "unit": "µg/mL"},
      {"measurement": "IC50", "setting": "[20]", "value": "> 200", "unit": "µg/mL"},
      {"measurement": "proliferation inhibiting activity (in words)", "setting": "[21]", "value": "showed a proliferation inhibiting activity"},
      {"measurement": "virus proliferation inhibition index", "setting": "[21]; Horse/Miami, 50% toxicity conc. / 50% proliferation inhibiting conc., 2880 min", "value": "> 56.5"},
      {"measurement": "IC50", "setting": "[21]; [32]", "value": 17.7, "unit": "µg/mL"},
      {"measurement": "virucidal activity (in words)", "setting": "[22]", "value": "potent virucidal activity"},
      {"measurement": "IC50", "setting": "[22]; [33]", "value": 4.6, "unit": "µg/mL"},
      {"measurement": "virucidal activity (in words)", "setting": "[23]", "value": "potent virucidal activity"},
      {"measurement": "IC50", "setting": "[23]; [33]", "value": 58.8, "unit": "µg/mL"},
      {"measurement": "virucidal activity (in words)", "setting": "[24]", "value": "potent virucidal activity"},
      {"measurement": "IC50", "setting": "[24]; [33]", "value": 46.4, "unit": "µg/mL"},
      {"measurement": "virucidal activity (in words)", "setting": "[25]", "value": "potent virucidal activity"},
      {"measurement": "IC50", "setting": "[25]; [33]", "value": 4.6, "unit": "µg/mL"},
      {"measurement": "Serum concentration", "setting": "[26]; 90 min", "value": 0, "unit": "ng/mL"},
      {"measurement": "concentration at 5 min", "setting": "[26]; mouse, serum, ip, 5 min", "value": 30000, "unit": "ng/mL"},
      {"measurement": "concentration at 10 min", "setting": "[26]; mouse, serum, ip, 10 min", "value": 42000, "unit": "ng/mL"},
      {"measurement": "concentration at 20 min", "setting": "[26]; mouse, serum, ip, 20 min", "value": 55000, "unit": "ng/mL"},
      {"measurement": "concentration at 0.5 h", "setting": "[26]; mouse, serum, ip, 30 min", "value": 45000, "unit": "ng/mL"},
      {"measurement": "concentration at 1 h", "setting": "[26]; mouse, serum, ip, 60 min", "value": 27000, "unit": "ng/mL"},
      {"measurement": "Serum concentration", "setting": "[27]; 180 min", "value": 0, "unit": "ng/mL"},
      {"measurement": "concentration at 0.5 h", "setting": "[27]; mouse, serum, 30 min", "value": 15000, "unit": "ng/mL"},
      {"measurement": "concentration at 1 h", "setting": "[27]; mouse, serum, 60 min", "value": 7000, "unit": "ng/mL"},
      {"measurement": "LD50", "setting": "[28]", "value": "≥ 500", "unit": "mg/kg"},
      {"measurement": "Solubility", "setting": "[29]; Ethyl acetate, benzene, acetone, chloroform", "value": "Soluble"},
      {"measurement": "Solubility", "setting": "[29]; Hexane, water", "value": "Substantially insoluble"},
      {"measurement": "Solubility", "setting": "[29]; Lower alcohol, e.g. methanol and ethanol", "value": "Easily soluble"},
      {"measurement": "Stability", "setting": "[30]; acidic to neutral condition", "value": "Stable"},
      {"measurement": "Stability", "setting": "[30]; alkaline condition", "value": "instable"},
      {"measurement": "CC50 at 24 h", "setting": "[31]", "value": "> 1000", "unit": "µg/mL"}
    ]}
  ]
}
